Results as given in PMC6503470, “Antibacterial Oligomeric Polyphenols from the Green Alga Cladophora socialis” (The Journal of Organic Chemistry, 2019).
In brackets after ≈: the same amount, converted by molar mass. Read-outs that look alike come from different tables or passages of the source.

Tests used:
[1] = system: wild type Candida albicans (WTCA, ATCC 32354); assay: Antifungal MIC assay, wild type C. albicans; type: cell-based; settings: ATCC32354, MIC90, values expressed as 95% confidence interval, read-out: Minimal inhibitory concentration, WTCA
[2] = system: methicillin-resistant Staphylococcus aureus (MRSA, ATCC 33591); assay: Antibacterial MIC assay, MRSA; type: cell-based; settings: for MIC: Staphylococcus aureus, read-out: Minimal inhibitory concentration, MRSA
[3] = system: vancomycin-resistant Enterococcus faecium (VREF, ATCC 700221); assay: Antibacterial MIC assay, VREF; type: cell-based; settings: ATCC700221, MIC90, values expressed as 95% confidence interval, read-out: Minimal inhibitory concentration, VREF
[4] = Antibacterial MIC assay, Gram-negative panel; type: cell-based, Gram-negative bacteria (panel); settings: one value for the whole panel of Gram-negative strains; read-out: Minimal inhibitory concentration, Gram–
[5] = system: amphotericin B-resistant C. albicans (ARCA, ATCC 90873); assay: Antifungal MIC assay, amphotericin B-resistant C. albicans; type: cell-based; settings: Candida albicans, ATCC90873; MIC90; values expressed as 95% confidence interval; read-out: Minimal inhibitory concentration, ARCA
[6] = system: P. falciparum strain Dd2L; assay: Parasite proliferation assay, asexual blood-stage P. falciparum, SYBR Green; type: cell-based; settings: Plasmodium falciparum
Method: Antimalarial activity was assessed using a standard parasite proliferation assay with asexual blood-stage P. falciparum and SYBR Green detection.[22] Screening media (complete media supplemented with 0.05% Albumax II but without human serum) and fresh O^+ erythrocytes (TSRI Normal Blood Donation) were used for cultures of P. falciparum strain Dd2L (gift from Dr. David Fidock, Colombia University). A Labcyte ECHO acoustic liquid handler transferred compounds into assay plates. The plates were inoculated (Multi-Flo; BioTek, VT) with parasitized erythrocytes and fresh erythrocytes prepared in screening media, resulting in a final parasitemia of 0.3% and hematocrit of 2.5%. A chamber with a low oxygen gas mixture at 37 °C was used to culture the assay plates for 72 h with daily gas exchanges. SYBR Green lysis buffer was added to the wells after incubation using a Multi-Flo liquid dispenser, and plates were incubated at room temperature for an additional 24 h to achieve optimal development of the fluorescence signal which was read by an Envision Multimode Reader (PerkinElmer, MA). The positive controls used were atovaquone (EC50 = 0.0006 μM) and artemisinin (EC50 = 0.03 μM).

[7] = system: Escherichia coli (EC, ATCC 25922); assay: Antibacterial MIC assay, E. coli; type: cell-based
[8] = system: MDR Escherichia coli (MDREC, ATCC BAA-1743); assay: microbe, parasite or virus in culture; settings: ATCCBAA1743, read-out: MIC, MDREC
[9] = Cytotoxicity, human kidney cells; type: cell-based; settings: human, HEK293T cells (human kidney cells); read-out: half maximal cytotoxicity concentration (CC50), HEK293T
[10] = system: human kidney cells (HEK293T); assay: Cytotoxicity, human kidney cells; type: cell-based; settings: at the compound's P. falciparum EC50; cell line not restated, HEK293T assumed
[11] = MIC90, at least 90% inhibition of growth, values expressed as 95% confidence interval
[12] = asexual blood stages, 72 h, 95% confidence interval, read-out: Half-maximal effective concentration, P. falciparum
[13] = ATCC25922, Gram– column, footnote e: tested only against E. coli, read-out: Minimal inhibitory concentration, Gram– (tested only against E. coli)
[14] = positive controls, read-out: EC50, P. falciparum

C[C@@H]1[C@H](O)[C@@H](C)/C=C/C=C/C=C/C=C/C=C/C=C/C=C/[C@H](O[C@@H]2O[C@H](C)[C@@H](O)[C@H](N)[C@@H]2O)C[C@@H]2O[C@](O)(C[C@@H](O)C[C@@H](O)[C@H](O)CC[C@@H](O)C[C@@H](O)CC(=O)O[C@H]1C)C[C@H](O)[C@H]2C(=O)O [amphotericin B, reference compound]
MIC [1]: 16 ± 1 µg/mL (≈ 17.3 µM)

O=c1oc2c(O)cc(Oc3ccc(Oc4ccc(Oc5ccc(Oc6ccc(Oc7ccc(Oc8ccc(Oc9ccc(-c%10ccc(O)c(O)c%10)cc9O)cc8O)cc7O)cc6O)cc5O)cc4O)cc3O)cc2c2cc(O)c(O)cc12 [compound 9, α-[(4,8,9-trihydroxy-2-benzo[c]chromen-6-on-2-yl)oxy]-ω-[3,4-dihydroxyphenyl]hepta[oxy(2-hydroxyphen-4-yl)]]
Minimal inhibitory concentration, MRSA [2, 11]: 14 ± 3 µg/mL (≈ 12.6 µM)
MIC [2, 11]: 13 to 49 µg/mL (≈ 11.7 to 44.2 µM)
MIC [3]: > 50 µg/mL
MIC [4]: > 50 µg/mL
MIC [1]: > 50 µg/mL
MIC [5]: > 50 µg/mL
EC50 [6, 12]: > 2 µg/mL

O=c1oc2c(O)cc(Oc3ccc(Oc4ccc(Oc5ccc(Oc6ccc(Oc7ccc(Oc8ccc(Oc9ccc(Oc%10ccc(Oc%11ccc(Oc%12ccc(Oc%13ccc(-c%14ccc(O)c(O)c%14)cc%13O)cc%12O)cc%11O)cc%10O)cc9O)cc8O)cc7O)cc6O)cc5O)cc4O)cc3O)cc2c2cc(O)c(O)cc12 [compound 12, α-[(4,8,9-trihydroxy-2-benzo[c]chromen-6-on-2-yl)oxy]-ω-[3,4-dihydroxyphenyl]undeca[oxy(2-hydroxyphen-4-yl)]]
MIC [3]: > 50 µg/mL
MIC [1]: > 50 µg/mL
MIC [5]: > 50 µg/mL
MIC [7, 13]: > 50 µg/mL

O=C1CN(/N=C/c2ccc([N+](=O)[O-])o2)C(=O)N1 [nitrofurantoin]
MIC [8]: 14 ± 1 µg/mL (≈ 58.8 µM)

Oc1ccc(Oc2ccc(Oc3ccc(Oc4ccc(Oc5ccc(Oc6ccc(Oc7ccc(Oc8ccc(-c9ccc(O)c(O)c9)cc8O)cc7O)cc6O)cc5O)cc4O)cc3O)cc2O)cc1O [compound 6, α-hydro-ω-[3,4-dihydroxyphenyl]octa[oxy(2-hydroxyphen-4-yl)]]
Minimal inhibitory concentration, MRSA [2, 11]: 1.4 ± 0.3 µg/mL (≈ 1.44 µM)
MIC [2, 11]: 1.4 µg/mL (≈ 1.44 µM)
MIC [3]: > 50 µg/mL
MIC [4]: > 50 µg/mL
MIC [1]: 46 ± 13 µg/mL (≈ 47.2 µM)
MIC [5]: 46 ± 9 µg/mL (≈ 47.2 µM)
EC50 [6, 12]: > 2 µg/mL

CN[C@H](CC(C)C)C(=O)N[C@H]1C(=O)N[C@@H](CC(N)=O)C(=O)N[C@H]2C(=O)N[C@H]3C(=O)N[C@H](C(=O)N[C@H](C(=O)O)c4cc(O)cc(O)c4-c4cc3ccc4O)[C@H](O)c3ccc(c(Cl)c3)Oc3cc2cc(c3O[C@@H]2O[C@H](CO)[C@@H](O)[C@H](O)[C@H]2O[C@H]2C[C@](C)(N)[C@H](O)[C@H](C)O2)Oc2ccc(cc2Cl)[C@H]1O [vancomycin, reference compound]
MIC [2]: < 4 µg/mL

O=c1oc2c(O)cc(Oc3ccc(Oc4ccc(Oc5ccc(Oc6ccc(Oc7ccc(Oc8ccc(Oc9ccc(Oc%10ccc(Oc%11ccc(-c%12ccc(O)c(O)c%12)cc%11O)cc%10O)cc9O)cc8O)cc7O)cc6O)cc5O)cc4O)cc3O)cc2c2cc(O)c(O)cc12 [compound 10, α-[(4,8,9-trihydroxy-2-benzo[c]chromen-6-on-2-yl)oxy]-ω-[3,4-dihydroxyphenyl]nona[oxy(2-hydroxyphen-4-yl)]]
MIC [3]: > 50 µg/mL
MIC [4]: > 50 µg/mL
MIC [1]: > 50 µg/mL
MIC [5]: > 50 µg/mL
EC50 [6, 12]: > 2 µg/mL

Oc1ccc(Oc2ccc(Oc3ccc(Oc4ccc(Oc5ccc(Oc6ccc(Oc7ccc(Oc8ccc(Oc9ccc(-c%10ccc(O)c(O)c%10)cc9O)cc8O)cc7O)cc6O)cc5O)cc4O)cc3O)cc2O)cc1O [compound 7, α-hydro-ω-[3,4-dihydroxyphenyl]nona[oxy(2-hydroxyphen-4-yl)]]
MIC [3]: > 50 µg/mL
MIC [4]: > 50 µg/mL
MIC [1]: > 50 µg/mL
MIC [5]: > 50 µg/mL
EC50 [6, 12]: > 2 µg/mL

O=c1oc2c(O)cc(Oc3ccc(-c4ccc(O)c(O)c4)cc3O)cc2c2c(O)c(O)ccc12 [compound 5, 4,9,10-trihydroxy-2-[(3,3′,4′-trihydroxy-(1,1′-biphenyl)-4-yl)oxy]benzo[c]chromen-6-one]
Minimal inhibitory concentration, MRSA [2, 11]: 13 ± 2 µg/mL (≈ 28.2 µM)
MIC [2, 11]: 13 to 49 µg/mL (≈ 28.2 to 106 µM)
MIC [3]: > 50 µg/mL
MIC [4]: > 50 µg/mL
MIC [1]: > 50 µg/mL
MIC [5]: > 50 µg/mL
EC50 [6, 12]: 1.9 ± 0.2 µg/mL
CC50 [9]: 4.5 µg/mL (≈ 9.77 µM)
toxicity at the P. falciparum EC50 values [10]: no toxicity

Oc1ccc(-c2ccc(O)c(O)c2)cc1O [compound 3, 3,4,3′,4′-tetrahydroxy-1,1′-biphenyl]
MIC [2, 11]: > 50 µg/mL
MIC [3]: > 50 µg/mL
MIC [4]: > 50 µg/mL
MIC [1]: > 50 µg/mL
MIC [5]: > 50 µg/mL

O=c1oc2c(O)cc(Oc3ccc(Oc4ccc(Oc5ccc(Oc6ccc(Oc7ccc(Oc8ccc(Oc9ccc(Oc%10ccc(-c%11ccc(O)c(O)c%11)cc%10O)cc9O)cc8O)cc7O)cc6O)cc5O)cc4O)cc3O)cc2c2cc(O)c(O)cc12 [compound 8, α-[(4,8,9-trihydroxy-2-benzo[c]chromen-6-on-2-yl)oxy]-ω-[3,4-dihydroxyphenyl]octa[oxy(2-hydroxyphen-4-yl)]]
Minimal inhibitory concentration, MRSA [2, 11]: 25 ± 3 µg/mL (≈ 20.5 µM)
MIC [2, 11]: 13 to 49 µg/mL (≈ 10.7 to 40.3 µM)
MIC [3]: > 50 µg/mL
MIC [1]: > 50 µg/mL
MIC [5]: > 50 µg/mL
EC50 [6, 12]: > 2 µg/mL
MIC [7, 13]: > 50 µg/mL

C[C@@H]1CC[C@H]2[C@@H](C)C(=O)O[C@@H]3O[C@@]4(C)CC[C@@H]1[C@]32OO4 [artemisinin, reference compound]
EC50 [6, 14]: 30 nM

O=C(N[C@H](CO)[C@H](O)c1ccc([N+](=O)[O-])cc1)C(Cl)Cl [chloramphenicol, reference compound]
MIC [3]: < 8 µg/mL
MIC ([7]; ATCC25922, positive control, read-out: MIC, EC): < 8 µg/mL

O=c1oc2cc(O)c(O)cc2c2cc(O)c(O)cc12 [compound 4, 2,3,8,9-tetrahydroxybenzo[c]chromen-6-one]
MIC [2, 11]: > 50 µg/mL
MIC [3]: > 50 µg/mL
MIC [4]: > 50 µg/mL
MIC [1]: > 50 µg/mL
MIC [5]: > 50 µg/mL
EC50 [6, 12]: 0.7 ± 0.1 µg/mL
CC50 [9]: 9.4 µg/mL (≈ 36.1 µM)
toxicity at the P. falciparum EC50 values [10]: no toxicity

O=C1C(O)=C([C@H]2CC[C@H](c3ccc(Cl)cc3)CC2)C(=O)c2ccccc21 [atovaquone, reference compound]
EC50 [6, 14]: 0.6 nM

O=c1oc2c(O)cc(Oc3ccc(Oc4ccc(Oc5ccc(Oc6ccc(Oc7ccc(Oc8ccc(Oc9ccc(Oc%10ccc(Oc%11ccc(Oc%12ccc(-c%13ccc(O)c(O)c%13)cc%12O)cc%11O)cc%10O)cc9O)cc8O)cc7O)cc6O)cc5O)cc4O)cc3O)cc2c2cc(O)c(O)cc12 [compound 11, α-[(4,8,9-trihydroxy-2-benzo[c]chromen-6-on-2-yl)oxy]-ω-[3,4-dihydroxyphenyl]deca[oxy(2-hydroxyphen-4-yl)]]
MIC [3]: > 50 µg/mL
MIC [4]: > 50 µg/mL
MIC [1]: > 50 µg/mL
MIC [5]: > 50 µg/mL
